{"source": "paper PMC4865888", "about": "(Cell chemical biology, 2016)", "key": {"DENV2 NGC [1]": {"tested_on": "DENV2 NGC", "assay": "time-of-addition experiments, BHK21 cells, viral plaque assay", "assay_type": "cell-based, dengue virus", "conditions": "15 μM, BHK21, MOI 1, yield at 24 hpi"}, "DENV2 NGC [2]": {"tested_on": "DENV2 NGC", "assay": "low MOI multiple replication cycle infection experiment", "assay_type": "cell-based, dengue virus", "conditions": "MOI 0.01, treatment delayed until 24 hpi; GNF-2 15 μM, 8b 5 μM; titers at 48, 72 hpi"}, "[3]": {"target": "recombinant, soluble DENV2 E protein (sE), prefusion (Dengue virus type 2, UniProt P14340)", "assay": "Alphascreen assay, GNF2-biotin and prefusion sE", "conditions": "increasing concentrations, 20 nM to 10 μM"}, "DENV2 NGC [4]": {"tested_on": "DENV2 NGC", "conditions": "dose-response, inhibitor present during entire single round, MOI 1, 24 hpi"}}, "data": [{"compound": "NC(=O)c1cccc(-c2cc(Nc3ccc(OC(F)(F)F)cc3)ncn2)c1", "note": "[GNF-2]", "values": [{"measurement": "antiviral effect when added post-infection (POST, 0-5 hours)", "setting": "DENV2 NGC [1]", "result": "inhibit DENV2"}, {"measurement": "antiviral effect when pre-incubated with viral inoculum (PRE virus)", "setting": "DENV2 NGC [1]", "result": "additional antiviral activity"}, {"measurement": "inhibition of DENV2 over multiple replication cycles", "setting": "DENV2 NGC [2]", "result": "inhibit DENV2"}, {"measurement": "competition with GNF2-biotin for prefusion sE (Alphascreen signal)", "setting": "[3]", "result": "decrease the Alphascreen signal"}, {"measurement": "antiviral activity in single-cycle virus yield reduction assay", "setting": "DENV2 NGC [4]", "result": "more antiviral activity than imatinib"}]}]}
